In ChEMBL document CHEMBL1127168, “Synthesis and sar study of novel CCK-B antagonists” (Bioorg Med Chem Lett, 1993) one finds IC50 and Ratio data, which are given here for 13 compounds.

For experiment [1], the target named is T1, Cholecystokinin receptor type A (Rattus norvegicus, UniProt P30551).
T1 sequence (P30551 whole entry): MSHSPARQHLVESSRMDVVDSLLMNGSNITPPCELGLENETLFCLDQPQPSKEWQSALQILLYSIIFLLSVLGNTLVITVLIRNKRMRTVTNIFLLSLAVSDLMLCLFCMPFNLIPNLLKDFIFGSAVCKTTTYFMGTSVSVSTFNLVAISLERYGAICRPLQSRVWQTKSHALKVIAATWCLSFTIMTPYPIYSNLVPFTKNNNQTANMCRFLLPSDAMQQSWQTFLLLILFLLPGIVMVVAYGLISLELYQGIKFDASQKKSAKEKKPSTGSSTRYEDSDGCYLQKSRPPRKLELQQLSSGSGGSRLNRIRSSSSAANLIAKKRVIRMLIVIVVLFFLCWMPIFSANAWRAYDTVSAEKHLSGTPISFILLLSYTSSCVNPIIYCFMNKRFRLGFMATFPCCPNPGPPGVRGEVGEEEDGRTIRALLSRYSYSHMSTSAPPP
Description: In vitro inhibition of [125I]- Bolton Hunter CCK-8 to Cholecystokinin type A receptor in the rat pancreas.

Experiment [2] can be described thus: Ratio of inhibition at CCK-A compared to CCK-B receptors.
Experiment [3] has as its target T2, Gastrin/cholecystokinin type B receptor (Mus musculus, UniProt P56481).
T2 sequence (P56481 whole entry): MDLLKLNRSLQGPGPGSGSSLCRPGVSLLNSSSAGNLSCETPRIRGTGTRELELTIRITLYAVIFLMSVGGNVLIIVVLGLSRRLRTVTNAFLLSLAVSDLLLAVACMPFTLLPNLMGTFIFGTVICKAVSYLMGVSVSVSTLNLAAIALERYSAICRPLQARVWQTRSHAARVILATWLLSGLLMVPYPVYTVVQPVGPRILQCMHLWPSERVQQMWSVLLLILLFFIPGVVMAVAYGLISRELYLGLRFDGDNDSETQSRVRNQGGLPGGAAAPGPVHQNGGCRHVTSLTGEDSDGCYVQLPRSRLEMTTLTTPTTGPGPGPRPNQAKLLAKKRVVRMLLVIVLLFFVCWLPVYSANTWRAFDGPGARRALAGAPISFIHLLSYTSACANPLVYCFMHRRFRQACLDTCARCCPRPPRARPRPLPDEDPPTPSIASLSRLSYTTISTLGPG
Description: In vitro inhibition of [125I]- Bolton Hunter CCK-8 binding to Cholecystokinin type B receptor in the mouse cerebral cortex. In kind it is tissue-based.

Structures are written as SMILES.

With `CC(Cc1c[nH]c2ccccc12)(NC(=O)OC1[C@H]2C[C@@H]3C[C@@H](C[C@H]1C3)C2)C(=O)N(CCc1ccccc1)CC(=O)O` (single isomer, unassigned), the IC50 in experiment [1] amounted to 1080 nM.

For `C[C@@](Cc1c[nH]c2ccccc12)(NC(=O)OC1[C@H]2C[C@@H]3C[C@@H](C[C@H]1C3)C2)C(=O)NCCc1ccccn1` (some centres undefined), the Ratio in experiment [2] is 119. In addition, the IC50 in experiment [3] was 15.5 nM; in experiment [1], 1850 nM.

In the case of `COC(=O)CCN(CCc1ccccc1)C(=O)C(C)(Cc1c[nH]c2ccccc12)NC(=O)OC1[C@H]2C[C@@H]3C[C@@H](C[C@H]1C3)C2` (single isomer, unassigned), the Ratio in experiment [2] stood at 17.5. Further, the IC50 in experiment [3] was 113 nM; in experiment [1], 1980 nM.

`C[C@@](Cc1c[nH]c2ccccc12)(NC(=O)OC1[C@H]2C[C@@H]3C[C@@H](C[C@H]1C3)C2)C(=O)N(CCc1ccccn1)CC(=O)O` (some centres undefined): the Ratio in experiment [2] turned out to be 146. Further, the values for the half-maximal inhibitory concentration (IC50) in experiment [3] and in experiment [1] were 2.31 nM and 337 nM, respectively.

For `CC(Cc1c[nH]c2ccccc12)(NC(=O)OC1[C@H]2C[C@@H]3C[C@@H](C[C@H]1C3)C2)C(=O)N(CCC(=O)O)CCc1ccccc1` (single isomer, unassigned), inhibition in experiment [1] was half-maximal at 527 nM (IC50).

In the case of `C[C@@](Cc1c[nH]c2ccccc12)(NC(=O)OC1[C@H]2C[C@@H]3C[C@@H](C[C@H]1C3)C2)C(=O)N(CCCCCCC(=O)O)CCc1ccccc1` (some centres undefined), the Ratio in experiment [2] is more than 2.9. The IC50 in experiment [3] is 348 nM; in experiment [1] it was more than 1000 nM.

Turning to `COC(=O)CCCCCCN(CCc1ccccc1)C(=O)[C@](C)(Cc1c[nH]c2ccccc12)NC(=O)OC1[C@H]2C[C@@H]3C[C@@H](C[C@H]1C3)C2` (some centres undefined), the Ratio in experiment [2] was determined as 35.7. Further, the 50% inhibitory concentration (IC50) was 177 nM in experiment [3] and 6320 nM in experiment [1].

In experiment [1], `C[C@@](Cc1c[nH]c2ccccc12)(NC(=O)OC1[C@H]2C[C@@H]3C[C@@H](C[C@H]1C3)C2)C(=O)N(CCC(=O)O)CCc1ccccc1` (some centres undefined) came in with an IC50 of 672 nM.

Consider `COC(=O)CN(CCc1ccccc1)C(=O)[C@](C)(Cc1c[nH]c2ccccc12)NC(=O)OC1[C@H]2C[C@@H]3C[C@@H](C[C@H]1C3)C2` (some centres undefined), for which the Ratio in experiment [2] is 4.4. Also, the figures for the IC50 in experiment [3] and in experiment [1] were 532 nM and 2330 nM, respectively.

For `COC(=O)CN(CCc1ccccn1)C(=O)C(C)(Cc1c[nH]c2ccccc12)NC(=O)OC1[C@H]2C[C@@H]3C[C@@H](C[C@H]1C3)C2` (single isomer, unassigned), in experiment [2], the Ratio was found to be 27.7. Also, the IC50 in experiment [3] was 90.9 nM; in experiment [1] it was 2520 nM.

For the compound `CC(Cc1c[nH]c2ccccc12)(NC(=O)OC1[C@H]2C[C@@H]3C[C@@H](C[C@H]1C3)C2)C(=O)N(CCCC(=O)O)CCc1ccccc1` (single isomer, unassigned), in experiment [2], the Ratio was found to be 7. Also, the values for the IC50 in experiment [3] and in experiment [1] were 80.2 nM and 564 nM, respectively.

In experiment [1], `C[C@@](Cc1c[nH]c2ccccc12)(NC(=O)OC1C2CC3CC(C2)CC1C3)C(=O)N[C@@H](CC(=O)O)Cc1ccccc1` (some centres undefined) returned an IC50 of 25.5 nM.

In experiment [1], `C[C@@](Cc1c[nH]c2ccccc12)(NC(=O)OC1[C@H]2C[C@@H]3C[C@@H](C[C@H]1C3)C2)C(=O)N(CCc1ccccc1)CC(=O)O` (some centres undefined) yielded an IC50 of more than 1000 nM.
